Measured values reported in PubChem BioAssay AID1996.
Values after ≈ are worked out from the molar mass of the structure shown.

settings: buffer; pH 7.4; 200.0 µM

SMILES | solubility kinetic [µg/mL]
OC1(c2ccccn2)COc2ccccc2O1 (stereo not given) | 28.1 (≈ 123 µM)
CSc1sc(C(=O)N(C)C)c2c1S(=O)(=O)N(C)c1ccccc1-2 | > 55.3
Cc1cc(N2CCOCC2)n2cc(-c3ccccc3)nc2n1 | 12.3 (≈ 41.8 µM)
COCCNC(=O)CN1CCCCCC1.Cl | 34.8
COc1ccc(C(=O)Nc2ccc(CN3CCCCC3)cc2)cc1 | > 48.7
O=C(COc1ccc(Cl)cc1Br)OCC(=O)c1ccc[nH]1 | 6 (≈ 16.1 µM)
CCCc1nnc(SCC(=O)NC2CC2)n1CC | > 40.3
Cc1cc(C(=O)NCC(=O)Nc2c(C)cccc2C)c(C)o1 | 23.8 (≈ 79.2 µM)
O=C(O)c1cc(NC(=O)c2ccco2)cc(NC(=O)c2ccco2)c1 | 44.4 (≈ 130 µM)
COc1ccc(CCNC(=O)COC(=O)CCC(=O)c2cccs2)cc1OC | > 60.8
O=C(/C=C/c1ccc([N+](=O)[O-])cc1)OCc1cnc(-c2ccccc2)o1 | 6.8 (≈ 19.4 µM)
CC(C)C(NC(=O)c1ccc(F)cc1)C(=O)NCC1CCCO1 (stereo not given) | > 48.4
Fc1ccc(NC(=S)N2CCOCC2)c(F)c1 | > 38.7
O=C(CSc1nncs1)Nc1ccc2c(c1)OCO2 | > 44.3
COc1ccc(C(=O)NC(=S)SCC(=O)O)cc1 | > 42.8
COc1cnc(-c2ccccc2)nc1OC | 19.1 (≈ 88.3 µM)
CC(C)(C)c1cc2ncnc(N3CCCCC3)c2s1 | 10.5 (≈ 38.1 µM)
CC(NS(=O)(=O)c1ccc([N+](=O)[O-])cc1)C(=O)NN (stereo not given) | > 43.2
O=C(NC1CCCCC1)c1c2c(nc3ccccc13)CCC2 | 25.9 (≈ 88 µM)
Cc1noc(C)c1S(=O)(=O)N(C)Cc1ccccc1 | 38.5 (≈ 137 µM)

SMILES | solubility kinetic [µg/mL]
Cc1nnc(SCC(=O)NC2CC2)s1 | > 34.4
O=C(Nc1ccc(F)c([N+](=O)[O-])c1)C(=O)c1c(O)[nH]c2ccccc12 | > 51.5
CC(NC(=O)NC(=O)c1ccc(Cl)cc1Cl)C1CC1 (stereo not given) | 7.2 (≈ 23.9 µM)
Cc1nc(/C(N)=N/OC(=O)c2cccc(Cl)c2)c(C(F)(F)F)o1 | > 52.2
O=C1CN(/N=C/c2ccc([N+](=O)[O-])o2)C(=O)N1 | > 35.7
CCc1cc(SC#N)ccc1N | 20.7 (≈ 116 µM)
CCn1cc(CCC(=O)NCCN2CCOCC2)c2ccccc21 | 48.9 (≈ 148 µM)
O=C(Nc1c(-c2ccccc2)nc2ccccn12)c1cccc(F)c1 | 1.4 (≈ 4.23 µM)
O=C(CNC(=O)c1cccc(F)c1)N/N=C/c1cccnc1 | > 45
Cc1ccc(OCCN2C(=O)C(=O)c3cccc(C)c32)cc1 | < 0.6
COc1ccc(NC(=O)C2C3C=CC(O3)C2C(=O)O)cc1 (stereo not given) | > 43.4
CSc1ccccc1C(=O)OCC(=O)Nc1cccnc1Cl | 15.6 (≈ 46.3 µM)
CCOc1cc(-c2nc3ccccc3s2)ccc1O | 1.1 (≈ 4.05 µM)
Cc1cccc(OCCn2cnc(Cl)c2Cl)c1 | 27.7 (≈ 102 µM)
Cc1ccc(NC(=O)C2CCCN2C(=O)NC2CCCCC2)cc1F (stereo not given) | 0.9 (≈ 2.59 µM)
Cc1ccccc1-n1nc2c(c1NC(=O)CC(C)C)CS(=O)C2 (stereo not given) | > 49.7
CCOc1ccc(NC(=O)N(c2ccccc2)c2ccccc2)cc1 | 2.5 (≈ 7.52 µM)
O=C(O)c1ccccc1C(=O)Nc1ccccc1NC(=O)c1ccccc1C(=O)O | > 60.7
CC(=O)c1ccc(OCCOc2ccc(C#N)cc2)cc1 | 6.8 (≈ 24.2 µM)
O=C(CN1CCCC1)N1CCN(c2ccccc2)CC1 | > 41

SMILES | solubility kinetic [µg/mL]
N#Cc1cccc(CN2C=NS(=O)(=O)c3ccccc32)c1 | 42.2 (≈ 142 µM)
CCc1ccccc1NC(=O)CC(=O)Nc1ccccc1CC | > 46.6
CN=C(C)/C(C(=O)OC)=C(/O)c1ccccc1F | 32.3 (≈ 129 µM)
CCS(=O)CC(=O)Nc1c(-c2ccccc2)oc2ccccc2c1=O (stereo not given) | 44.8 (≈ 126 µM)
CC1CCCCN1CC(O)COCc1ccccc1.Cl (stereo not given) | > 45
COc1ccc(C(=O)NCCCN2CCOCC2)cc1 | > 41.8
Cc1c(NS(=O)(=O)c2cc(C(=O)N3CCCC(C)C3)ccc2Cl)c(=O)n(-c2ccccc2)n1C (stereo not given) | > 75.5
CC1(C)Cc2c(C#N)c(SCCO)nc(N3CCOCC3)c2CO1 | > 52.4
Nc1nc(SCC(=O)Nc2ccc([N+](=O)[O-])cc2)n[nH]1 | > 44.1
O=C(COc1ncnc2ccccc12)N1CCN(c2ccccc2)CC1 | > 52.3
COc1ccc(NC(=S)NCCNC(C)=O)cc1 | 35.4 (≈ 132 µM)
Cl.Fc1ccc(CN2C3=NCCN3c3ccccc32)cc1 | 43.2
CCN(Cc1ccccc1)C(=O)c1cccnc1 | 35.9 (≈ 149 µM)
O=C(NCCO)C(=O)Nc1cc2c3c(c1)CC(=O)N3CCC2 | > 45.5
CN(C)c1ccc(CNCC2CCCO2)cc1.Cl (stereo not given) | > 40.6
CN(CC(=O)Nc1cccc(S(=O)(=O)N2CCCC2)c1)Cc1ccccc1 | 17.8 (≈ 45.9 µM)
Cc1cc2nc3c(=O)n(C4CCCCC4)c(=O)[nH]c3nc2cc1N | 2.8 (≈ 8.61 µM)
Cc1ccc(C(=O)OCC(=O)NCC2CCCO2)c(C)c1 (stereo not given) | > 43.7
Cc1nn(C)c(C)c1NS(=O)(=O)c1ccc(N2CCCC2=O)cc1 | > 52.3
Nc1cccc2cc(-c3ccccc3)oc12 | 2.4 (≈ 11.5 µM)
